Measured values reported in patent US9040717B2, “Pyrazole-amide compounds and pharmaceutical use thereof” (JAPAN TOBACCO INC., priority 2013, dated 2015).

Experiments:
liver PDH activity = assay: Ex vivo PDH activation assay, liver; assay type: in vivo, Sprague-Dawley rats
Method: The action of test compound on tissue PDH activity was evaluated. NADH production was detected via p-iodonitrotetrazolium violet (INT)-coupled system to measure PDH activity.
Normal male Sprague-Dawley rats were randomly allocated to the vehicle group and the test compound groups. The vehicle (0.5% aqueous methylcellulose solution, 5 mL/kg) or the test compound was orally administered to the rats. At 5 or 20 hr after administration, the rats were anesthetized with an intraperitoneal injection of sodium pentobarbital (60 mg/kg), and liver slices and epididymal adipose tissues were collected.
To the liver slices were rapidly added 9 volumes of ice-cold homogenization buffer (0.25 mol/L sucrose, 5 mmol/L tris(hydroxymethyl)aminomethane hydrochloride (pH 7.5), 2 mmol/L EDTA), and the mixtures were homogenized using a Polytron homogenizer. The homogenates were centrifuged at 600×g, 4° C. for 10 min to obtain the supernatant. The supernatants (1 mL) were centrifuged at 16,000×g, 4° C. for 10 min to collect the precipitates. The precipitates were washed by resuspension in the homogenization buffer (1 mL) and centrifuged in the same manner. The precipitates were frozen with liquid nitrogen and stored at −80° C. as the liver mitochondrial fraction.
The mitochondrial fractions were thawed and suspended with the sample buffer (0.25 mol/L sucrose, 20 mmol/L tris(hydroxymethyl)aminomethane hydrochloride (pH 7.5), 50 mmol/L potassium chloride, and 1 mL/L 4-(1,1,3,3-tetramethylbutyl)phenyl-polyethylene glycol (Triton X-100)). Active PDH activity (PDHa activity) and total PDH activity (PDHt activity) were measured to evaluate the PDH activity. For the measurement of the PDHt activity, equal amounts of the mitochondrial suspension and the activation buffer (0.25 mol/L sucrose, 20 mmol/L tris(hydroxymethyl)aminomethane hydrochloride (pH 7.5), 50 mmol/L potassium chloride, 1 mL/L Triton X-100, 4 mmol/L calcium chloride, 40 mmol/L magnesium chloride, 10 mmol/L sodium dichloroacetate) were mixed, and the mixtures were incubated at 37° C. for 10 min. Forty microliters of the mitochondrial suspensions diluted with a sample buffer were added to a 96-well microplate for activity measurement and blank measurement. Then 180 μL of the reaction mixture (0.056 mmol/L potassium phosphate buffer (pH 7.5), 5.6 mmol/L DL-carnitine, 2.8 mmol/L NAD, 0.22 mmol/L thiamin pyrophosphate, 0.11 mmol/L Coenzyme A, 1.1 mL/L Triton X-100, 1.1 mmol/L magnesium chloride, 1.1 g/L bovine serum albumin, 0.67 mmol/L INT, 7.2 μmol/L phenazine methosulfate, 28 mmol/L sodium oxamate) was added to each well, and then 20 μL of 50 mmol/L sodium pyruvate for activity measurement or water for blank measurement were added. The mixtures were incubated at room temperature under shading. The absorbances at 500-750 nm, which were attributable to reduction of INT, the final electron acceptor, were measured using a microplate reader over time and the changes in the absorbance were calculated. The PDH activity was calculated by subtraction of the change in absorbance of the blank well from that of the activity measurement well. The percentage of the PDHa activity to the PDHt activity was calculated and taken as an index of the PDH activation.

[1] = Metabolic stability test in human liver microsome; assay type: in vitro ADME; conditions: 5 μM, 37° C.
Method: Human liver microsome (manufactured by Xenotech, H0620, final concentration (after dilution), 0.2 mg protein/mL) was suspended in 100 mM potassium phosphate buffer (pH 7.4, containing β-nicotinamide adenine dinucleotide phosphate: 1.3 mM, D-glucose-6-phosphate: 3.3 mM, magnesium chloride: 3.3 mM, glucose-6-phosphate dehydrogenase: 0.45 U/mL), and further mixed with a test compound dissolved in MeCN/DMSO (95/5) (final concentration 5 μM). The mixture was incubated at 37° C. for 10 min and 60 min, acetonitrile containing formic acid (final concentration 0.1%) was added, and the mixture was centrifuged. The test compound (unmodified) in the supernatant was measured by high performance liquid chromatography/mass spectrometry (LC/MS) (manufactured by Waters, LC: Acquity UPLC, MS:SQ Detector or TQ Detector). The residual ratio (%) was calculated from the obtained measurement value.

[2] = Table 2, 5 hr after oral 3 mg/kg, non-fasting SD rats, vehicle 13 ± 3, mean ± S.D. (n = 3)
[3] = Table 2, 20 hr after oral 3 mg/kg, non-fasting SD rats, vehicle 13 ± 3, mean ± S.D. (n = 3)

Structure (SMILES) | PDHa activity (% of PDHt activity) (liver PDH activity; Table 3, 5 hr after oral 3 mg/kg, SD rats, vehicle 28 ± 6, mean ± S.D. (n = 3)) | PDHa activity (% of PDHt activity) (liver PDH activity; Table 3, 20 hr after oral 3 mg/kg, SD rats, vehicle 28 ± 6, mean ± S.D. (n = 3)) | Stability in liver microsome (residual ratio %) ([1]; 10 min) [%] | Stability in liver microsome (residual ratio %) ([1]; 60 min) [%] | PDHa activity (% of PDHt activity) (liver PDH activity; [2]) | PDHa activity (% of PDHt activity) (liver PDH activity; [3])
CC(C)(O)CCOc1cc(-c2cnn(C(C)(C)C(N)=O)c2)c2c(c1)[C@@](O)(C(F)(F)F)c1ccccc1-2 [Compound (2), 2-{4-[(9R)-9-hydroxy-2-(3-hydroxy-3-methylbutyloxy)-9-(trifluoromethyl)-9H-fluoren-4-yl]-1H-pyrazol-1-yl}-2-methylpropanamide] | 74 ± 12 % of PDHt activity | 50 ± 16 % of PDHt activity | 98.8 | 96.5 |  | 
CC(C)(O)CCCOc1cc(-c2cnn(C(C)(C)C(N)=O)c2)c2c(c1)[C@@](O)(C(F)(F)F)c1ccccc1-2 [Compound (3), 2-{4-[(9R)-9-hydroxy-2-(4-hydroxy-4-methylpentyloxy)-9-(trifluoromethyl)-9H-fluoren-4-yl]-1H-pyrazol-1-yl}-2-methylpropanamide] |  |  | 98.4 | 85.9 | 56 ± 8 % of PDHt activity | 32 ± 9 % of PDHt activity
NC(=O)Cn1cc(-c2cc(OCCC34CC5CC(CC(O)(C5)C3)C4)cc3c2-c2ccccc2[C@]3(O)C(F)(F)F)cn1 [Compound (A), 2-(4-{(9R)-9-Hydroxy-2-[2-(3-hydroxyadamantan-1-yl)ethoxy]-9-(trifluoromethyl)-9H-fluoren-4-yl}-1H-pyrazol-1-yl)acetamide] |  |  | 34.8 | 0.0 | 35 ± 6 % of PDHt activity | 16 ± 10 % of PDHt activity
Cn1cc(-c2cc(OCC(C)(C)O)cc3c2-c2ccccc2[C@]3(O)C(F)(F)F)cn1 [Compound (B), (9R)-2-(2-Hydroxy-2-methylpropoxy)-4-(1-methyl-1H-pyrazol-4-yl)-9-(trifluoromethyl)-9H-fluoren-9-ol] |  |  | 98.0 | 88.2 | 43 ± 7 % of PDHt activity | 10 ± 3 % of PDHt activity
